Assay results taken from patent publication US20260240154A1, “GLOBODERA PALLIDA CONTROL AGENT” (National Agriculture and Food Research Organization, priority 2021, published 2026).

Tests used:
Globodera pallida eggs = assay: Hatching accelerating effect evaluation test for Globodera pallida (liquid immersion test); format: in vivo; settings: 1 mL of 2 ppm test reagent solution added to 1 mL egg suspension; 16° C.; about 2 weeks; two replicates
Experimental: A predetermined amount of compound (I) was dissolved in an aqueous solution containing 0.05% (v/v) of polyoxyethylene sorbitan monolaurate (Tween20) to prepare a 100 ppm solution of compound (I).
The 100 ppm solution of compound (I) was further diluted with a 0.05% (v/v) Tween20 aqueous solution to prepare a test reagent solution with a concentration of compound (I) of 2 ppm.
The cysts of Globodera pallida increased in a greenhouse before the previous year were isolated from the soil, immersed in distilled water and kept at 16° C. for about 2 weeks were crushed with a scalpel and the eggs were taken out to obtain an egg suspension. After preparing a density of approximately 600 eggs per mL, Tween 20 was added to a concentration of 0.05% (v/v). 1 mL of this egg suspension was put into a 13.5 mL screw cap glass vial (inner diameter: 2.1 cm, height: 4.8 cm), and 1 mL each of a test reagent solution with a concentration of compound (I) of 2 ppm was added. It was covered and kept at 16° C.
About 2 weeks later, 1 mL was taken out, and the number of hatching larvae and the number of eggs were counted under a stereomicroscope. Two replicates were installed for each compound, and the average hatching rate was calculated.

Globodera pallida [1] = assay: Reduction test of Globodera pallida egg density (pot test); format: in vivo; settings: 30 days, three pots; for Average density reduction rate at 10 ppm (%): 32 mL of 10 ppm test reagent solution in 800 mL field soil; for Average density reduction rate at 100 ppm (%): 32 mL of 100 ppm test reagent solution in 800 mL field soil
Experimental: After 20 mg of compound (I) was dissolved in 1 mL of dimethylsulfoxide, 199 mL of a 0.1% polyoxyethylene sorbitan monolaurate aqueous solution was added thereto, to obtain a test reagent solution with a concentration of compound (I) of 100 ppm. Further, this was diluted 10-fold with distilled water, to prepare a 10 ppm test reagent solution.
Soil was collected from a field infected with Globodera pallida, and the egg density was investigated, as follows. The cysts were separated from 100 g of the dried soil by dry flotation-sieving method and crushed to release nematode eggs, and the number of eggs was counted under a stereomicroscope. This was taken as the initial density.
32 mL of the test reagent solution adjusted to 100 ppm or 10 ppm was added to 800 mL of the collected field soil, followed by stirring well. It was packed in a plastic pot (upper diameter: 10.5 cm, height: 22.5 cm), and placed in a greenhouse without any planting for 30 days. Each pot was watered with 26 mL of distilled water every 6 to 7 days.
After 30 days, the soil was spread on an aluminum bat and air-dried, and the cysts were separated from 100 g of the dry soil in the same manner as above, to count the number of remaining eggs (density after treatment). Three pots were installed per concentration for each compound, and the average density reduction rate was calculated from the initial density and the density after treatment.

Globodera pallida [2] = assay: Reduction test of Globodera pallida egg density (field plot test); format: in vivo; settings: for Gp density reduction rate: about 80 days, average of four plots
Experimental: With reference to Formulation Example 4, a 10% solution of compound No. 2 was prepared. This 10% solution was diluted with distilled water, to prepare test reagent solutions with concentrations of 300 ppm, 30 ppm, and 3 ppm.
Round plots (diameter:30 cm) were installed in a field infected with Globodera pallida, and the reducing effect of reagent solution treatment on the nematode egg density in soil was investigated. Each plot was prepared by burying a cylinder (30 cm in diameter and 25 cm in height) made of polyethylene sheet to a depth of 20 cm. Test plots were installed in the field and soil samples in each plot were collected for the initial density survey. Then, the test reagent solution of each concentration was sprayed at a ratio of 5 or 1 L per square meter and the soil in the plot was mixed with a shovel to a depth of 15 cm. As a result, treatments with four different doses of compound (1500, 300, 30 and 3 g per 10 a) were prepared.
About 80 days later, the soil in each plots was collected, and the nematode egg density in the soil was investigated, as follows. The cysts were separated from 100 g of dried soil by a sieving cyst flow method, crushed with a scalpel to extract eggs, suspended in distilled water to extract a certain amount, and the number of eggs was counted under a stereomicroscope.
Four plots were installed for each concentration, and the average density reduction rate was calculated from the initial density and final density.

Gp = settings: relative to natural hatching factor; cited from earlier work

| Compound | Average hatching rate (%) (Globodera pallida eggs) | Average density reduction rate at 10 ppm (%) (Globodera pallida [1]) | Average density reduction rate at 100 ppm (%) (Globodera pallida [1]) | also measured |
| --- | --- | --- | --- | --- |
| Cc1ccc(C2CC(=O)NC2(C)C)cc1 (stereo not drawn) [Compound 2, 5,5-dimethyl-4-(4-methylphenyl)-2-pyrrolidinone] | 94.3% | 95.4% | 98.0% | Gp density reduction rate (Globodera pallida [2]; dose 3 g/10 a): 65.6%; Gp density reduction rate (Globodera pallida [2]; dose 300 g/10 a): 94.4%; Gp density reduction rate (Globodera pallida [2]; dose 1500 g/10 a): 98.4%; Reduction of Gp density in the soil (Globodera pallida [2]; dose of 30 g or more per 10a): ≥ 80%; Gp density reduction rate (Globodera pallida [2]; dose printed as 'g/10 a' (third dose level)): 88.8% |
| CC1(C)NC(=O)CC1c1ccc(Cl)cc1 (stereo not drawn) [Compound 3, 5,5-dimethyl-4-(4-chlorophenyl)-2-pyrrolidinone] | 95.2% | 97.4% | 98.5% | – |
| CC1(C)NC(=O)CC1c1ccc(Br)cc1 (stereo not drawn) [Compound 4, 5,5-dimethyl-4-(4-bromophenyl)-2-pyrrolidinone] | 97.9% | 98.8% | 98.9% | – |
| CC1(C)NC(=O)CC1c1ccc(F)c(F)c1 (stereo not drawn) [Compound 12, 5,5-dimethyl-4-(3,4-difluoro-phenyl)-2-pyrrolidinone] | 65.4% | 97.7% | 98.8% | – |
| Cc1ccc(C2CC(=O)OC2(C)C)cc1 (stereo not drawn) [Compound 18, 5,5-dimethyl-4-(p-tolyl)dihydrofuran-2(3H)-one] | 97.1% | 81.7% | 96.2% | – |
| Cc1ccc(C2CCC(=O)NC2(C)C)cc1 (stereo not drawn) [Compound A-3, 6,6-dimethyl-5-(p-tolyl)piperidin-2-one] | 97.2% | 94.9% | 97.2% | – |
| CC1(C)NC(=O)CC1c1ccc(Cl)c(Cl)c1 [Compound D-7] | 95.2% | – | – | – |
| Cc1ccc(C2CC(=S)NC2(C)C)cc1 [Compound D-8] | 91.8% | – | – | – |
| CC1(C)OC(=O)C=C1c1ccc(Cl)cc1 [Compound D-9] | 50.1% | – | – | – |
| CC1(C)OC(=O)C=C1c1cccc2ccccc12 [Compound D-10] | 36.4% | – | – | – |
| CC1(C)OC(=O)C=C1c1ccc2ccccc2c1 [Compound D-11] | 59.0% | – | – | – |
| CC1(C)OC(=O)C=C1c1ccc(-c2ccc(Cl)cc2)cc1 [Compound D-12] | 52.0% | – | – | – |
| Cc1ccccc1C1=CC(=O)OC1(C)C [Compound D-13] | 60.1% | – | – | – |
| Cc1cccc(C2=CC(=O)OC2(C)C)c1C [Compound D-14] | 63.7% | – | – | – |
| Cc1ccc(C2=CC(=O)OC2(C)C)c(C)c1 [Compound D-15] | 94.9% | 85.8% | 98.2% | – |
| Cc1ccc(C)c(C2=CC(=O)OC2(C)C)c1 [Compound D-16] | 66.5% | – | – | – |
| Cc1cc(C)cc(C2=CC(=O)OC2(C)C)c1 [Compound D-17] | 55.4% | – | – | – |
| Cc1ccccc1C1=CC(=O)NC1(C)C [Compound D-18] | 58.8% | – | – | – |
| Cc1ccc(C2=CC(=O)NC2(C)C)c(C)c1 [Compound D-19] | 95.7% | – | – | – |
| CC1=NN(c2ccc([N+](=O)[O-])cc2)C(=O)C1[N+](=O)[O-] (stereo not drawn) [picrolonic acid] | – | – | – | Hatching activity, % of that of the natural hatching factor (Gp): about 30% |
| [Na+].[Na+].[Na+].[O]=[V]([O-])([O-])[O-] [sodium orthovanadate] | – | – | – | Hatching activity, % of that of the natural hatching factor (Gp): ~60% |
| N#C[S-].[Na+] [sodium thiocyanate] | – | – | – | Hatching activity, % of that of the natural hatching factor (Gp): about 30% |
| sodium metavanadate | – | – | – | Hatching activity, % of that of the natural hatching factor (Gp): ~70% |
